Results from patent publication US11021476B2, “Pyrroloquinoline quinone monosodium and method for producing the same, and composition comprising the same” (Mitsubishi Gas Chemical Company, Inc., priority 2016, dated 2021).

How the values were obtained:
[1] = Test of penetration into skin; settings: 5 mg crystals on pig skin, 80 minutes at 37° C.; [(untreated − treated)/untreated brightness]×100
Experimental: The skin of a pig was washed with tap water, and the water was completely wiped off. 5 mg of one of crystals was brought into contact with this skin of the pig and then fixed to the skin by wrapping in plastic wrap. After 80 minutes at 37° C., the tape was peeled, and the skin was washed with tap water to remove the test composition adhering to the skin surface. Evaluation was performed by capturing an image of the test composition by a scanner and measuring a change in the brightness of the skin using image software (product name: Paint (software included with Windows (registered trademark) XP, manufactured by Microsoft Corporation). At this time, the change in the brightness of the skin was calculated by [[brightness of untreated skin−brightness after treatment]/[brightness of untreated skin]]×100.

Bulk density measurement = type: physicochemical; settings: 10 mL volumetric flask
Experimental: Bulk density was measured using a 10 mL volumetric flask.

[2] = Thermal stability test (solubility change at 180° C. for 10 minutes); type: physicochemical; settings: for State of dissolution after heating at 180° C. for 10 minutes (with 100 before heating): solubility from absorbance at 330 nm, solubility before heating = 100; for State of dissolution after heating at 180° C. for 10 minutes: 1 mg heated on hot plate, then 10 mL water, stirred 15 minutes
Experimental: Whether the solubility of crystals changed by heat treatment was tested. […] At this time, the state was recorded. The aqueous solution after the stirring was filtered through a 0.5 μm filter and diluted to 1/10, and absorbance at 330 nm was measured. A change in the solubility of the crystals before and after the heat treatment was examined by this measurement.

[3] = Thermal stability test (70° C. color change test); type: physicochemical; settings: 1 mg crystals in 70° C. oven
Experimental: 1 mg of the crystals obtained in each of Examples 1 and 6 and Comparative Example 2 were placed in a 70° C. oven, and a change in color after 2 hours was observed.

[4] = Reaction with powdered green tea; type: physicochemical; settings: 2 mg powdered green tea + 1 mg crystals + 100 μL water
Experimental: 2 mg of powdered green tea and 1 mg of the crystals obtained in each of Examples 1 and 6 and Comparative Example 2 were mixed. As a model in which the mixed powder was wet, 100 μL of water was added. […] The crystals 2 were very stable and excellent in powder mixing.

Suspension fluidity test = type: physicochemical; settings: 100 g/L in water, mixed at room temperature, observed at 4° C.
[5] = Solubility and color of mixtures; type: physicochemical
Experimental: Powders were mixed in a proportion shown in Table 3, and the color of the powder was recorded. 1 mL of water was added to a crystal mass of 10 mg at room temperature. […] The aqueous solution after the cooling was centrifuged, and the supernatant liquid was removed. This was diluted with a phosphate buffer, and the solubility was calculated from absorbance at 330 nm.

Compound	Penetration (change in the brightness of the skin) [1]	Bulk specific gravity (Bulk density measurement) [g/mL]	State of dissolution after heating at 180° C. for 10 minutes (with 100 before heating) [2]	Change in color after 2 hours at 70° C. [3]	Color change of tea leaves [4]	Fluidity when crystals are added to water (Suspension fluidity test)	Color in form of powder [5]	solubility at 30 min ([5]; thermodynamic from solid, 10 mg in 1 mL water, ultrasonic 5 min, 70 degrees 10 min, cooled 30 min at room temperature, absorbance at 330 nm) [mM]	State of dissolution after heating at 180° C. for 10 minutes [2]	Solubility ([5]; 10 mg in 1 mL water, ultrasonic 5 min, 70 degrees 10 min, cooled 30 min at room temperature, absorbance at 330 nm) [mM]
O=C(O)c1cc(C(=O)[O-])c2c(n1)C(=O)C(=O)c1cc(C(=O)O)[nH]c1-2.[Na+] [Comparative Example 2, reference compound]	1.6	0.20	71	Change to black	changed color to orange	No				
O=C(O)c1cc(C(=O)O)c2c(n1)C(=O)C(=O)c1cc(C(=O)O)[nH]c1-2.[Na] [Example 1, Pyrroloquinoline Quinone Monosodium]	8.4	0.29	82	No change	changed color to orange	Yes	Deep red	4.5	All dissolve	
O=C(O)c1cc(C(=O)O)c2c(n1)C(=O)C(=O)c1cc(C(=O)O)[nH]c1-2.[Na].[Na] [Raw material, pyrroloquinoline quinone disodium, reference compound]							Red			
Dipyrroloquinoline quinone monosodium [Example 7]	4.3	0.27	100	No change	did not change color	Yes	Black		All dissolve	2.1
